Where a SMILES comes first, the peptide text is derived from it. [ ]: non-standard residue; d: D form. Nle = CCCC[C@H](N)C(=O)O

Experiment [1] concerns the target T1, catalytic subunit β1 of a proteasome (Homo sapiens, UniProt P28072).
T1 construct: purchased Bioscience (so in the source) 20S Proteasome StressXpress Assay Kit Gold
The settings on record: literature report, consistent with FIG. 13A; cited from earlier work.

The test system of a further experiment is K-Ras protein. As to conditions: known from Sun, Q. et al.; cited from earlier work.
Another experiment deals with SW1990 cells. Briefly: Apoptosis induction in SW1990 cells, FACS analysis (Annexin V/PI). Type of experiment: cell-based, human. The settings on record: SW1990 cells expressing G12D mutant K-Ras, 24 hours after addition; FIGS. 6B, 7B. As for the experimental part:
(§1) In Example 7, apoptosis induction in a case where TUS-007, Ras-SOS, or Ras-SOS-NH2 was added to HeLa cells or SW1990 cells (human pancreatic cancer cells) had been added was evaluated by the FACS analysis. It is noted that in HeLa cells, the wild-type K-Ras protein (K-Ras-WT) is expressed, and in SW1990 cells, the G12D mutant K-Ras protein (K-Ras-G12D) is expressed.
(§2) HeLa cells or SW1990 cells were seeded in a 24-well plate at a cell density of 8×10^4 cells/well, and then cultured under conditions of 37° C. and 5 vol % CO2 for 16 hours.
(§3) After 16 hours from cell seeding, TUS-007, Ras-SOS, or Ras-SOS-NH2 were added to HeLa cells or SW1990 cells as follows. As a medium, a serum-free medium (37° C.) in which 1 mass % L-glutamine solution (Sigma-Aldrich) was added to D-MEM (high D-glucose, phenol red, sodium pyruvate (Wako Pure Chemical Industries, Ltd.)) was used. It is noted that the L-glutamine solution was added immediately before use. A DMSO solution containing TUS-007, Ras-SOS, or Ras-SOS-NH2 was mixed with the medium so that the concentration of DMSO was 1 vol %, and added to each well at 500 μL/well, and cultured under conditions of 37° C. and 5 vol % CO2. As a control, DMSO was used.
(§4) The medium was removed 24 hours after addition of TUS-007, Ras-SOS, or Ras-SOS-NH2, and then PBS was added to wash the cells. After removing PBS, trypsin (0.25 w/v % trypsin-1 mmol/L EDTA⋅4 Na solution with phenol red) (Wako Pure Chemical Industries, Ltd.) at 37° C. was added to each well at 200 μL/well, and cultured under conditions of 37° C. and 5 vol % CO2 for 1 minute. […]
(§5) A BD FACSCanto™ II (BD Biosciences) was used for flow cytometry. […] The proportion of Annexin V-positive and PI-negative cells was calculated using an analysis software FlowJo™ (TOMY Digital Biology Co., Ltd.), and the proportion was defined as a proportion of apoptosis cells.
(§6) In Example 8, apoptosis induction in a case where TUS-007, Ras-SOS-NH2, or erlotinib as an anticancer agent (EGFR inhibitor) was added to HeLa cells or SW1990 cells was evaluated by FACS analysis as in Example 7.
For orientation: A flow cytometer gives signals particle by particle.

Experiment [2] addresses T2, endogenous wild-type H-Ras protein (Mus musculus, UniProt Q61411).
T2 construct: an endogenous wild-type K-Ras protein and wild-type H-Ras protein; from tissue; host or cells: mouse pancreas and colon
Put plainly: Degradation of endogenous wild-type H-Ras protein in mouse pancreas and colorectal tissue, Western blot analysis. Type of experiment: in vivo. The settings on record: C57BL/6J mice, intraperitoneal, TUS-007 40 or 80 mg/kg, Ras-SOS 80 mg/kg, 48 hours; pancreas and colon; FIG. 8. As for the experimental part:
(§7) In Example 9, in a mouse individual to which TUS-007 had been administered, the degradation (knockdown) of an endogenous wild-type K-Ras protein and wild-type H-Ras protein was evaluated by Western blot analysis.
(§8) TUS-007 was dissolved in DMSO, and then dissolved in corn oil so that the concentration of DMSO was 10 vol %, and then intraperitoneally administered to C57BL/6J wild-type mice (8 to 9 weeks old, male) (CLEA Japan, Inc.) in an amount of 40 mg/kg body weight or 80 mg/kg body weight (n=3 to 4). Furthermore, in addition to a group in which TUS-007 was administered, a group in which Ras-SOS had been administered in a dose of 80 mg/kg body weight was prepared. As a control, an injection carrier (corn oil containing 10 vol % DMSO) was used. The mice were kept under an environment of ad libitum access to food and water. The mice were dissected under deep anesthesia 48 hours after administration. The pancreas and colon were excised, and flash frozen in liquid nitrogen.
(§9) The frozen pancreas and colon were each triturated, and then TKM tissue lysis buffer (50 mM triethanolamine (pH 7.8), 50 mM KCl, 5 mM MgCl2, 0.25 M sucrose, 1 mM PMSF, Protein Inhibitors Cocktail-EDTA free (Nacalai Tesque, Inc.), 1 mM DTT, and a recombinant RNase inhibitor (0.2 U/μL, Takara Bio) were added, and subjected to centrifugation (at 13800 rpm×30 minutes, 4° C.), and the supernatants (pancreatic tissue extract and colorectal tissue extract) were collected. The concentration of the extracted proteins was quantified with a spectrophotometer.
(§10) Each tissue extract collected was subjected to Western blot analysis. […]
(§11) After electrophoresis, proteins were transferred to a PVDF membrane (Immobion™-P, Millipore) under conditions of 200 mA and 90 minutes using a tank-type blotting device and a transfer buffer (25 mM Tris-HCl, 195 mM glycine, 0.01% SDS, 15% methanol). […] Subsequently, the membrane was treated with a chemiluminescence reagent Immobilon™ Western (Millipore), and then chemiluminescence was detected using a lumino image analyzer LAS-3000 (FUJIFILM Corporation).

In experiment [3] the target is T3, endogenous wild-type K-Ras protein (Mus musculus, UniProt P32883).
T3 construct: an endogenous wild-type K-Ras protein and wild-type H-Ras protein; from tissue; host or cells: mouse pancreas and colon
Put plainly: Degradation of endogenous wild-type K-Ras protein in mouse pancreas and colorectal tissue, Western blot analysis. Type of experiment: in vivo. As to conditions: C57BL/6J mice, intraperitoneal, TUS-007 40 or 80 mg/kg, Ras-SOS 80 mg/kg, 48 hours; pancreas and colon; FIG. 8. As for the experimental part: as §7, §8, §9, §10, §11

A further experiment deals with HeLa cells. Briefly: Apoptosis induction in HeLa cells, FACS analysis (Annexin V/PI). It counts as cell-based, human. As to conditions: HeLa cells expressing wild-type K-Ras, 24 hours after addition; FIGS. 6A, 7A. The protocol: as §1, §2, §3, §4, §5, §6
Experiment [4] has as its system interaction between the Ras protein and the SOS protein. As to conditions: known from Sun, Q. et al.; cited from earlier work.
Experiment [5] has as its target T4, catalytic subunit β5 of the proteasome (Homo sapiens, UniProt P28074).
T4 construct: purchased Bioscience (so in the source) 20S Proteasome StressXpress Assay Kit Gold
Briefly: Proteasome inhibitory activity, 20S proteasome β5 (chymotrypsin-like activity). Type of experiment: biochemical. The settings on record: 20S proteasome assay kit, AMC fluorescence substrate; FIGS. 10C, 13C. The protocol: (§12) In Reference Example 2, the proteasome inhibitory activity of TMP-CANDDY_DMT and the affinity of TMP-CANDDY_DMT with a proteasome were evaluated. As a positive control, MG-132 as a proteasome inhibitor was used.
(§13) For evaluation, 20S Proteasome StressXpress™ Assay Kit Gold (Bioscience) was used. AMC was measured by using Multi-Detection Microplate Reader (Synergy HT, BIO-TEK). The AMC was produced by cleaving the C-terminus of an AMC-binding proteasome fluorescence substrate specific to β subunits of a 20S proteasome, including β5 (chymotrypsin-like activity), β2 (trypsin-like activity), and β1 (caspase-like activity). The measuring wavelengths were 360 nm for excitation light (Ex.), and 460 nm for fluorescence (Em.).
(§14) In Reference Example 6, as in Reference Example 2, a proteasome inhibitory activity of TMP-CANDDY_ALLN and an affinity of TMP-CANDDY_ALLN with a proteasome were evaluated.

In experiment [6] the target is T1, catalytic subunit β1 of a proteasome. Put plainly: Proteasome inhibitory activity, 20S proteasome β1 (caspase-like activity). The settings on record: 20S proteasome assay kit, AMC fluorescence substrate; FIGS. 10A, 13A. Type of experiment: biochemical. The protocol:
as §12, §13, §14

Experiment [7] concerns the target T5, catalytic subunit β2 of the proteasome (Homo sapiens, UniProt Q99436).
T5 construct: purchased Bioscience (so in the source) 20S Proteasome StressXpress Assay Kit Gold
Briefly: Proteasome inhibitory activity, 20S proteasome β2 (trypsin-like activity). Type of experiment: biochemical. The settings on record: 20S proteasome assay kit, AMC fluorescence substrate; FIGS. 10B, 13B. As for the experimental part: as §12, §13, §14

The target of experiment [8] is T6, ecDHFR protein (Escherichia coli, UniProt P0ABQ4).
T6 construct: expressed in transfected cells; host or cells: HeLa
Type of experiment: cell-based, human. The settings on record: HeLa cells, 24 hours after addition, vs control (DMSO); FIGS. 11, 14.

For experiment [9], the target named is T6, ecDHFR protein. It counts as cell-based, human. The settings on record: HeLa cells, FIGS. 12A, 12B.

Consider `CCCC[C@@H](C=O)NC(=O)[C@H](CC(C)C)NC(=O)[C@H](CC(C)C)NC(C)=O` [ALLN] (Ac-Leu-Leu-[Nle]-aldehyde), for which the “inhibition of proteasome β1 as reported (Kaiser, M. et al.)” value in [1] was “β1 was not inhibited by ALLN”.
`CC[C@H](C)[C@H](N)C(=O)Nc1ccc2[nH]c(Cc3c[nH]c4ccccc34)nc2c1` [Ras-SOS]: the “binding to K-Ras protein (wild-type, G12D mutant, G12V mutant)” value in the experiment on K-Ras protein is “bound to not only a wild-type K-Ras protein but also a G12D mutant and a G12V mutant K-Ras protein”. Also, the “apoptosis induction (proportion of Annexin V-positive and PI-negative cells)” value is on record as “the effect of the apoptosis induction by Ras-SOS was largely reduced” in the experiment on SW1990 cells and “apoptosis was induced in a concentration-dependent manner” with HeLa cells. In experiment [2], the “amount of the endogenous wild-type H-Ras protein in mouse tissues (Western blot)” value was “the amount of the wild-type K-Ras protein and the wild-type H-Ras protein was not reduced”. Moreover, the “amount of the endogenous wild-type K-Ras protein in mouse tissues (Western blot)” value in [3] is “the amount of the wild-type K-Ras protein and the wild-type H-Ras protein was not reduced”. Also, the “inhibition of the interaction between the Ras protein and the SOS protein” value in [4] was “inhibit the interaction between the Ras protein and the SOS protein”.
As to `CCCC[C@H](NC(=O)[C@H](CC(C)C)NC(=O)[C@H](CC(C)C)NC(C)=O)C(=O)NCCCCCCNC(=O)COc1c(OC)cc(Cc2cnc(N)nc2N)cc1OC` [TMP-CANDDY_ALLN], in [5], the “inhibitory activity against proteasome β5 (chymotrypsin-like activity)” value is listed as “the inhibitory activity was weakened”. In addition, the “inhibitory activity against proteasome β1 (caspase-like activity)” value in experiment [6] was “increased against any of β1, β2, and β5 in a concentration dependent manner”. For the same compound, in experiment [7], the “inhibitory activity against proteasome β2 (trypsin-like activity)” value is given as “the inhibitory activity was weakened”. In addition, at ecDHFR protein [8], the “degradation (knockdown) of the ecDHFR protein (shift of GFP/DsRed ratio graph)” value was “degradation of the ecDHFR protein was induced”.
Regarding `COc1nc(NCCCCCCNC(=O)COc2c(OC)cc(Cc3cnc(N)nc3N)cc2OC)nc(OC)n1` [TMP-CANDDY_DMT], in experiment [5], the “inhibitory activity against proteasome β5 (chymotrypsin-like activity)” value was “significantly lower proteasome inhibitory activity as compared with MG-132”. Moreover, the “amount of the ecDHFR protein (Western blot)” value on ecDHFR protein [9] (24 hours after addition, cycloheximide 50 μg/mL at 12 hours) is “the amount of the ecDHFR protein was reduced”. Also, at ecDHFR protein [9] (bortezomib co-added, compared with TMP-CANDDY_DMT alone), the “degradation of the ecDHFR protein when both TMP-CANDDY_DMT and bortezomib were added” value is reported as “degradation of the ecDHFR protein was inhibited”. Besides, the “inhibitory activity against proteasome β1 (caspase-like activity)” value in experiment [6] is recorded as “significantly lower proteasome inhibitory activity as compared with MG-132”. For the same compound, in [7], the “inhibitory activity against proteasome β2 (trypsin-like activity)” value was “significantly lower proteasome inhibitory activity as compared with MG-132”. Further, the “degradation (knockdown) of the ecDHFR protein (shift of GFP/DsRed ratio graph)” value at ecDHFR protein [8] is on record as “degradation of the ecDHFR protein was induced”.
Turning to `C#Cc1cccc(Nc2ncnc3cc(OCCOC)c(OCCOC)cc23)c1` [erlotinib], the figures for the “apoptosis induction (proportion of Annexin V-positive and PI-negative cells)” value with SW1990 cells and with HeLa cells were “the effect of the apoptosis induction by erlotinib was largely reduced” and “apoptosis was induced in a concentration-dependent manner”, respectively.

The record behind these values is patent US11052154B2, “Ras protein degradation inducing molecule and pharmaceutical composition” (Tokyo University of Science Foundation, priority 2016, dated 2021).
